Experimental data published in patent US20230242530A1, “8-(AZETIDIN-1-YL)-[1,2,4]TRIAZOLO[1,5-A]PYRIDINYL COMPOUNDS, COMPOSITIONS AND METHODS OF USE THEREOF” (Genentech, Inc., priority 2016, published 2023).

Key:
[1] = target: T1, isolated recombinant JAK2 kinase domain (Homo sapiens, UniProt O60674); test: JAK enzyme assay, JAK2 kinase domain (Caliper LabChip); format: biochemical; conditions: 0.2 nM JAK2, ATP 25 μM, Morrison tight binding model
T1 construct: isolated recombinant JAK1 and JAK2 kinase domain
Outline: (§1)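 Ki values were obtained by Morrison tight-binding analysis with ATP-competitive correction, Ki=Ki,app/(1+[ATP]/Km,app). Phosphorylated versus total fluorescent JAK3-derived peptide was quantified on a Caliper LabChip. Kinase reactions with the isolated recombinant domains ran 30 min at 22 °C before EDTA quench (50 mM final).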

[2] = target: T2, isolated recombinant JAK1 kinase domain (Homo sapiens, UniProt P23458); test: JAK enzyme assay, JAK1 kinase domain (Caliper LabChip); format: biochemical; conditions: 1.5 nM JAK1, ATP 25 μM, Morrison tight binding model
T2 construct: isolated recombinant JAK1 and JAK2 kinase domain
Outline: as §1

[3] = test system: JAK1-dependent STAT6 phosphorylation downstream of IL-13 stimulation in BEAS-2B cells; test: JAK1 pathway assay in cell lines: IL-13 p-STAT6 BEAS-2B; format: cell-based; conditions: BEAS-2B human bronchial epithelial cells, 1 hr compound, IL-13 15 min, MSD readout
Outline: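 Phospho-STAT6 read by MSD electrochemiluminescence in lysates of BEAS-2B cells kept in complete growth medium. Cells were pretreated 1 hr at 37 °C with compound (0.2% DMSO final) and stimulated 15 min with IL-13 at its EC90; EC50 is the concentration halving signal versus DMSO.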

T1 sequence (O60674 849-1124 limits assumed): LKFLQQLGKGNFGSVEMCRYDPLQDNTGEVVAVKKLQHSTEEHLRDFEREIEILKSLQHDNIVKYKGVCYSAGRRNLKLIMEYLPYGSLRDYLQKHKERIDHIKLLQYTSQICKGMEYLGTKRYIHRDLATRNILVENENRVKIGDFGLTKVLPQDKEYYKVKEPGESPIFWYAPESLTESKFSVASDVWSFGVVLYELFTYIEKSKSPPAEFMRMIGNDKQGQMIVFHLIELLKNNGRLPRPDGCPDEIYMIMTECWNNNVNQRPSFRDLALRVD
T2 sequence (P23458 875-1153 limits assumed): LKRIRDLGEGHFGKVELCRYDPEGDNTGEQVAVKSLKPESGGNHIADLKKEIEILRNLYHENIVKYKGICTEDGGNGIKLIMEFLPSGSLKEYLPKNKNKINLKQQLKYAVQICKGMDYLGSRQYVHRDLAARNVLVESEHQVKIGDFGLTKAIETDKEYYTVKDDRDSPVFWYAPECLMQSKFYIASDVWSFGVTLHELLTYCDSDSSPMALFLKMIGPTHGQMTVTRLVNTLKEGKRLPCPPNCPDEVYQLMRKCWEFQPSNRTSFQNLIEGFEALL

| SMILES | Ki [1] [nM] | Ki [2] [nM] | EC50 [3] [nM] |
| --- | --- | --- | --- |
| CN1CCN(C(=O)Cn2cc(Nc3nc4c(N5CC(CC#N)(Cc6ccccc6Cl)C5)cccn4n3)cn2)CC1 [Example 126, 2-[3-[(2-chlorophenyl)methyl]-1-[2-[[1-[2-(4-methylpiperazin-1-yl)-2-oxo-ethyl]pyrazol-4-yl]amino]-[1,2,4]triazolo[1,5-a]pyridin-8-yl]azetidin-3-yl]acetonitrile] | 0.4 | 0.2 | 12 |
| CCc1cnn(C2(CC#N)CN(c3cccn4nc(Nc5cnn(C)c5)nc34)C2)c1 [Example 127, 2-(3-(4-ethyl-1H-pyrazol-1-yl)-1-(2-((1-methyl-H-pyrazol-4-yl)amino)-[1,2,4]triazolo[1,5-a]pyridin-8-yl)azetidin-3-yl)acetonitrile] | 0.4 | 0.2 | 10 |
| N#CCC1(n2cc(Br)cn2)CN(c2cccn3nc(Nc4cn[nH]c4)nc23)C1 [Example 128, 2-[3-(4-bromopyrazol-1-yl)-1-[2-(1H-pyrazol-4-ylamino)-[1,2,4]triazolo[1,5-a]pyridin-8-yl]azetidin-3-yl]acetonitrile] | 0.2 | 0.2 | 8 |
| N#CCC1(n2cc(Br)cn2)CN(c2cccn3nc(Nc4cnn(CC(=O)N5CCN(C6CCOCC6)CC5)c4)nc23)C1 [Example 129, 2-[3-(4-bromopyrazol-1-yl)-1-[2-[[1-[2-oxo-2-(4-tetrahydropyran-4-ylpiperazin-1-yl)ethyl]pyrazol-4-yl]amino]-[1,2,4]triazolo[1,5-a]pyridin-8-yl]azetidin-3-yl]acetonitrile] | 0.8 | 0.3 | 49 |
| N#CCC1(n2cc(Br)cn2)CN(c2cccn3nc(Nc4cnn(CC(=O)N5CCC(N6CCOCC6)CC5)c4)nc23)C1 [Example 130, 2-[3-(4-bromopyrazol-1-yl)-1-[2-[[1-[2-(4-morpholino-1-piperidyl)-2-oxo-ethyl]pyrazol-4-yl]amino]-[1,2,4]triazolo[1,5-a]pyridin-8-yl]azetidin-3-yl]acetonitrile] | 1.1 | 0.4 | 117 |
| N#CCC1(n2cc(C(F)(F)F)cn2)CN(c2cccn3nc(Nc4cn[nH]c4)nc23)C1 [Example 131, 2-[1-[2-(1H-pyrazol-4-ylamino)-[1,2,4]triazolo[1,5-a]pyridin-8-yl]-3-[4-(trifluoromethyl)pyrazol-1-yl]azetidin-3-yl]acetonitrile] | 0.4 | 0.2 | 43 |
| Cn1cc(Nc2nc3c(N4CC(CC#N)(n5cc(Br)cn5)C4)cccn3n2)cn1 [Example 132, 2-[3-(4-bromopyrazol-1-yl)-1-[2-[(l-methylpyrazol-4-yl)amino]-[1,2,4]triazolo[1,5-a]pyridin-8-yl]azetidin-3-yl]acetonitrile] | 0.5 | 0.3 | 51 |
| CCc1cnn(C2(CC#N)CN(c3cccn4nc(Nc5cnn(CCO)c5)nc34)C2)c1 [Example 133, 2-[3-(4-ethylpyrazol-1-yl)-1-[2-[[1-(2-hydroxyethyl)pyrazol-4-yl]amino]-[1,2,4]triazolo[1,5-a]pyridin-8-yl]azetidin-3-yl]acetonitrile] | 0.3 | 0.3 | 12 |
| N#CCC1(n2cc(C(F)(F)F)cn2)CN(c2cccn3nc(Nc4cnn(CCO)c4)nc23)C1 [Example 134, 2-[1-[2-[[1-(2-hydroxyethyl)pyrazol-4-yl]amino]-[1,2,4]triazolo[1,5-a]pyridin-8-yl]-3-[4-(trifluoromethyl)pyrazol-1-yl]azetidin-3-yl]acetonitrile] | 0.3 | 0.3 | 13 |
| Cn1cc(Nc2nc3c(N4CC(CC#N)(n5cc(C(F)(F)F)cn5)C4)cccn3n2)cn1 [Example 135, 2-[1-[2-[(l-methylpyrazol-4-yl)amino]-[1,2,4]triazolo[1,5-a]pyridin-8-yl]-3-[4-(trifluoromethyl)pyrazol-1-yl]azetidin-3-yl]acetonitrile] | 0.5 | 0.3 | 10 |
| N#CCC1(n2cc(C(F)(F)F)cn2)CN(c2cccn3nc(Nc4cnn(CCCO)c4)nc23)C1 [Example 136] | 0.8 | 0.9 | 20 |
| COc1cnn(C2(CC#N)CN(c3cccn4nc(Nc5cnn(C)c5)nc34)C2)c1 [Example 137, 2-[3-(4-methoxypyrazol-1-yl)-1-[2-[(l-methylpyrazol-4-yl)amino]-[1,2,4]triazolo[1,5-a]pyridin-8-yl]azetidin-3-yl]acetonitrile] | 2.8 | 0.5 | 39 |
| CC(C)c1cnn(C2(CC#N)CN(c3cccn4nc(Nc5cnn(C)c5)nc34)C2)c1 [Example 138, 2-[3-(4-isopropylpyrazol-1-yl)-1-[2-[(l-methylpyrazol-4-yl)amino]-[1,2,4]triazolo[1,5-a]pyridin-8-yl]azetidin-3-yl]acetonitrile] | 0.3 | 0.2 | 16 |
| COc1cnn(C2(CC#N)CN(c3cccn4nc(Nc5cn[nH]c5)nc34)C2)c1 [Example 139, 2-[3-(4-methoxypyrazol-1-yl)-1-[2-(1H-pyrazol-4-ylamino)-[1,2,4]triazolo[1,5-a]pyridin-8-yl]azetidin-3-yl]acetonitrile] | 0.9 | 0.4 | 39 |
| N#CCC1(n2cc(C3CC3)cn2)CN(c2cccn3nc(Nc4cn[nH]c4)nc23)C1 [Example 140, 2-[3-(4-cyclopropylpyrazol-1-yl)-1-[2-(1H-pyrazol-4-ylamino)-[1,2,4]triazolo[1,5-a]pyridin-8-yl]azetidin-3-yl]acetonitrile] | 0.2 | 0.1 | 11 |
| CC(C)c1cnn(C2(CC#N)CN(c3cccn4nc(Nc5cn[nH]c5)nc34)C2)c1 [Example 141, 2-[3-(4-isopropylpyrazol-1-yl)-1-[2-(1H-pyrazol-4-ylamino)-[1,2,4]triazolo[1,5-a]pyridin-8-yl]azetidin-3-yl]acetonitrile] | 0.1 | 0.1 | 9 |
| Cn1cc(Nc2nc3c(N4CC(CC#N)(n5cc(C6CC6)cn5)C4)cccn3n2)cn1 [Example 142, 2-[3-(4-cyclopropylpyrazol-1-yl)-1-[2-[(l-methylpyrazol-4-yl)amino]-[1,2,4]triazolo[1,5-a]pyridin-8-yl]azetidin-3-yl]acetonitrile] | 0.5 | 0.4 | 14 |
| CCc1cnn(C2(CC#N)CN(c3cccn4nc(Nc5cnn(CC(=O)N(C)C)c5)nc34)C2)c1 [Example 143, 2-[4-[[8-[3-(cyanomethyl)-3-(4-ethylpyrazol-1-yl)azetidin-1-yl]-[1,2,4]triazolo[1,5-a]pyridin-2-yl]amino]pyrazol-1-yl]-N,N-dimethyl-acetamide] | 1.7 | 0.6 | 31 |
| CSc1cnn(C2(CC#N)CN(c3cccn4nc(Nc5cn[nH]c5)nc34)C2)c1 [Example 144, 2-[3-(4-methylsulfanyIpyrazol-1-yl)-1-[2-(1H-pyrazol-4-ylamino)-[1,2,4]triazolo[1,5-a]pyridin-8-yl]azetidin-3-yl]acetonitrile] | 0.3 | 0.1 | 7 |
